Experimental data reported in patent US5070210A, “Novel ketenimines as intermediates for insecticides” (ICI Americas Inc., priority 1990, dated 1991).

Columns and labels:
Assay type in all cases: in vivo
[1] = system: Housefly [Musca domestica]; test: Housefly insecticidal test; settings: μg per 25 female flies; mortality after 48 hours
Summary of the method: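 LC50, as μg compound per 25 female flies, comes from dosage-mortality curves with doses from 100 μg downward. Residues were made by evaporating acetone plus 0.01% peanut oil in dishes, onto which 1-2-day-old females were caged; deaths were counted after 48 hours.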

[2] = system: Tobacco Budworm [Heliothis virescens (Fabricius)] larvae; test: Tobacco budworm contact test; settings: second-instar larvae, percent in solution, 5 days
Summary of the method: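 Cotton cotyledons dipped 2–3 s in compound in 50-50 acetone-water, dried, then infested with 5 second-instar larvae and held 5 days at high humidity. Mortality scored; LC50 from dosage-mortality curves, expressed as percent compound in solution, concentrations from 0.1% downward.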

[3] = system: Tobacco Budworm [Heliothis virescens (Fabricius)] eggs; test: Tobacco budworm egg test; settings: 2-day old eggs, percent in solution
Summary of the method: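 LC50 is given as percent compound in the dipping solution, fitted from dosage-mortality curves. Two-day-old eggs on paper towel were dipped in acetone solutions (top concentration 0.1%), kept at 78° F on rearing medium, and scored after control hatch and larval feeding.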

[4] = system: Beet Armyworm (Spodoptera exigua); test: Beet armyworm insecticidal test; settings: second-instar larvae, percent in solution; five days
Procedure: The compounds in Tables 1 and 2 above were tested for insecticidal activity using the following testing procedures. LC50 values, based on the results of these tests and calculated according to dosage-mortality curves, are expressed in Table 3.
Beet Armyworm (Spodoptera exigua):
Test compounds were diluted in a 50-50 acetone-water solution. Young leaves of sugar beets (Beta vulgaris) were immersed in the test solutions for 2-3 seconds and placed on a wire screen to dry. The dried leaves were placed in petri dishes containing a moistened filter paper and infested with five second-instar beet armyworm larvae. The dishes were placed in a high humidity chamber. Mortality of the larvae was recorded five days later. Test concentrations ranged from 0.1% downward. The LC-50 values are expressed below in Table 3 under the heading "BAW" in terms of percent of the test compound in solution.

[5] = system: Cabbage Looper [Trichoplusia ni (Hubner)]; test: Cabbage looper insecticidal test; settings: second-instar larvae, percent in solution; 3-5 days
Summary of the method: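 LC50, as percent test compound in solution, derived from dosage-mortality curves; concentrations started at 0.1% and went lower. Five second-instar larvae per dish fed on acetone-water-dipped, dried squash cotyledons in a humid chamber. Deaths recorded 3-5 days post-infestation.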

[6] = system: Aster Leafhopper [Macrosteles fascifrens (Stal)]; test: Aster leafhopper insecticidal test; settings: adults/nymphs, percent in solution; 48 hours
Summary of the method: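 LC50 values, given as percent of test compound in the dip solution, were derived from dosage-mortality curves over concentrations from 0.05% downward. Mortality was counted 48 hours after ten leafhopper adults/nymphs were enclosed on treated seedlings. The seedlings were oats, about 10 cm tall, briefly dipped in 50-50 acetone-water.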

[7] = system: Maize weevil [Sitophilus Zeamais (Motschulsky)]; test: Maize weevil insecticidal test; settings: adult weevils, percent in solution; 48 hours
Summary of the method: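 LC50, in percent of compound in solution, was derived from dosage-mortality curves after 48 h at about 25 °C. Ten adult weevils per container fed on four corn seeds briefly immersed in acetone:water (50:50) solutions of up to 0.01% and dried.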

SMILES	LC50, HF [1] [µg]	LC50, TBW, C (TBW-C) [2] [%]	LC50, TBW, E (TBW-E) [3] [%]	LC50, BAW [4] [%]	LC50, CL [5] [%]	LC50, LH [6] [%]	LC50, MW [7] [%]
Clc1cccc(N=C(OCc2cccc(Oc3ccccc3)c2)C(Cl)Cl)c1 [Compound 1]	4.8	0.06	0.05	0.009	0.005	> 0.05	> 0.01
CC(Cl)(Cl)C(=Nc1ccc(Cl)cc1)OCc1cccc(Oc2ccccc2)c1 [Compound 3]	50	0.009	> 0.1	0.015	0.012	> 0.05	> 0.01
CC(C)C(=Nc1ccc(Cl)c(Cl)c1)OCc1cccc(Oc2ccccc2)c1 [Compound 9]	14	0.0008	0.02	0.0005	0.001	0.0003	> 0.01
Clc1ccc(N=C(OCc2cccc(Oc3ccccc3)c2)C(Cl)Cl)cc1 [Compound 29]	5	0.001	0.01	0.003	0.002	0.003	> 0.01
ClCC(=Nc1ccc(Cl)cc1)OCc1cccc(Oc2ccccc2)c1 [Compound 31]	> 100	0.01	> 0.1	0.08	0.05	> 0.05	> 0.01
Clc1ccc(N=C(OCc2cccc(Oc3ccccc3)c2)C2CC2)cc1 [Compound 32]	37	0.006	0.1	0.03	0.003	> 0.05	> 0.01
CC(Cl)C(=Nc1ccc(Cl)cc1)OCc1cccc(Oc2ccccc2)c1 (stereo not shown) [Compound 33]	17	0.0025	> 0.1	0.02	0.01	> 0.05	> 0.01
CC(=Nc1ccccc1)OCc1cccc(Oc2ccccc2)c1 [Compound 42]	45	> 0.1	> 0.1	> 0.1	> 0.1	> 0.05	> 0.01
FC(F)(F)c1ccc(N=C(OCc2cccc(Oc3ccccc3)c2)C(Cl)Cl)cc1 [Compound 61]	29	0.03	0.03	0.002	0.001	> 0.05	> 0.01
FC(F)(F)c1ccc(N=C(OCc2cccc(Oc3ccccc3)c2)C2CC2)cc1 [Compound 62]	20	0.0015	0.025	0.02	0.005	> 0.05	> 0.01
FC(F)(F)Oc1ccc(N=C(OCc2cccc(Oc3ccccc3)c2)C(Cl)Cl)cc1 [Compound 64]	11	0.1	0.03	0.0025	0.0025	> 0.05	> 0.01
FC(F)(F)c1ccc(N=C(OCc2cccc(Oc3ccccc3)c2)C2CC2)c(Cl)c1 [Compound 65]	> 100	0.1	> 0.1	> 0.1	< 0.01	> 0.05	–
CC(C)C(=Nc1ccc(Cl)c(C(F)(F)F)c1)OCc1cccc(Oc2ccccc2)c1 [Compound 71]	50	0.0008	0.065	0.0004	0.0006	0.002	–
CC(C)C(=Nc1cc(F)cc(C(F)(F)F)c1)OCc1cccc(Oc2ccccc2)c1 [Compound 77]	10	0.0004	0.03	0.004	0.0005	0.0002	> 0.01
CC(C)C(=Nc1cccc(C(F)(F)F)c1)OCc1ccc(F)c(Oc2ccccc2)c1 [Compound 80]	4.5	0.00075	0.005	0.0018	0.0003	0.0001	–
CC(C)C(=Nc1ccc(C(C)C)cc1)OCc1cccc(Oc2ccccc2)c1 [Compound 144]	100	0.006	0.05	> 0.01	0.002	0.0006	> 0.01
CC(C)C(=Nc1ccc2c(c1)OCO2)OCc1cccc(Oc2ccc(F)cc2)c1 [Compound 176]	1.8	0.002	0.05	0.0035	0.0005	> 0.05	0.009
CC(C)C(=Nc1cccc(C(F)(F)F)c1)OCc1ccc(F)c(Oc2ccc(F)cc2)c1 [Compound 268]	4	0.0005	0.023	0.001	0.000025	0.0005	> 0.01
CC(C)C(=Nc1cccc(Cl)c1)OCc1cccc(Oc2ccc(Cl)cc2)c1 [Compound 270]	12	> 0.0015	> 0.01	0.005	0.00025	0.003	> 0.01
CC(C)C(=Nc1ccc2c(c1)OC(F)(F)O2)OCc1ccc(F)c(Oc2ccc(F)cc2)c1 [Compound 284]	39	0.0002	–	0.0025	0.00005	0.0003	0.0075
